Among the data in PubChem BioAssay AID330 (DTP/NCI, 2004) are T/C values, retold here.

Several values for one entry are separate records, joined by “and”; a condition that tells them apart may be missing. Identical values can stand only once. Inconclusive results and toxic doses are left out. Peptide text beside a SMILES is read from it. * marks the point of attachment. Cbz = O=C(OCc1ccccc1)*

The test system of the assay is P388 leukemia ip, CD2F1 mice, survival T/C. The assay is described as follows: NCI In Vivo Anticancer Drug Screen. Data for tumor model P388 Leukemia (intraperitoneal) in CD2F1 (CDF1) mice. Conditions: endpoint: median survival time, higher = longer survival. Put shortly: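 Mice carrying the transplanted tumor received test compound or vehicle. Survival was recorded in each group, and the value is the treated-group measurement divided by that of the vehicle-treated control group.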

[1] abbreviates: dose: 50.0 mg/kg/injection, schedule: Q01DX009 (ip), vehicle: saline.
Setting [2] is: dose: 100.0 mg/kg/injection, schedule: Q01DX009 (ip), vehicle: saline.
[3] abbreviates: dose: 200.0 mg/kg/injection, schedule: Q01DX009 (ip), vehicle: saline.
Where [4] appears, read: dose: 25.0 mg/kg/injection, schedule: Q01DX009 (ip), vehicle: saline with Tween-80.
[5] abbreviates: dose: 50.0 mg/kg/injection, schedule: Q01DX009 (ip), vehicle: saline with Tween-80.
Where [6] appears, read: dose: 100.0 mg/kg/injection, schedule: Q01DX009 (ip), vehicle: saline with Tween-80.
Setting [7] is: dose: 50.0 mg/kg/injection, schedule: Q01DX005 (ip), vehicle: Klucel (hydroxypropylcellulose) (HPC).
[8] abbreviates: dose: 100.0 mg/kg/injection, schedule: Q01DX005 (ip), vehicle: Klucel (hydroxypropylcellulose) (HPC).
The mark [9] stands for this setting: dose: 200.0 mg/kg/injection, schedule: Q01DX005 (ip), vehicle: Klucel (hydroxypropylcellulose) (HPC).
Where [10] appears, read: dose: 200.0 mg/kg/injection, schedule: Q01DX009 (ip), vehicle: saline with Tween-80.
Setting [11] is: dose: 12.5 mg/kg/injection, schedule: Q01DX009 (ip), vehicle: saline.
The mark [12] stands for this setting: dose: 25.0 mg/kg/injection, schedule: Q01DX009 (ip), vehicle: saline.
The mark [13] stands for this setting: dose: 50.0 mg/kg/injection, schedule: Q01DX005 (ip), vehicle: saline.
Where [14] appears, read: dose: 100.0 mg/kg/injection, schedule: Q01DX005 (ip), vehicle: saline.
[15] abbreviates: dose: 200.0 mg/kg/injection, schedule: Q01DX005 (ip), vehicle: saline.
Setting [16] is: dose: 6.25 mg/kg/injection, schedule: Q01DX005 (ip), vehicle: saline with Tween-80.
Setting [17] is: dose: 12.5 mg/kg/injection, schedule: Q01DX005 (ip), vehicle: saline with Tween-80.
Setting [18] is: dose: 50.0 mg/kg/injection, schedule: Q01DX005 (ip), vehicle: saline with Tween-80.
Where [19] appears, read: dose: 100.0 mg/kg/injection, schedule: Q01DX005 (ip), vehicle: saline with Tween-80.
Where [20] appears, read: dose: 200.0 mg/kg/injection, schedule: Q01DX005 (ip), vehicle: saline with Tween-80.

For the compound `CCNC(=O)Nc1ccc(Cl)cn1`, the T/C was 102 % of control under setting [1], 105 % of control under setting [2] and 105 % of control under setting [3].
Consider `O=[N+]([O-])c1ccc(-c2nc(/C=N/N3CCCCC3)cs2)o1`, for which the T/C was 100 % of control under setting [4], 100 % of control under setting [5] and 99 % of control under setting [6].
Consider `O=C(NNC(=S)NC1OCC(O)C(O)C1O)c1ccco1` (stereo not drawn), for which the T/C runs as follows: under setting [7], 99 % of control and 102 % of control; under setting [8], 100 % of control and 102 % of control; under setting [9], 104 % of control and 106 % of control; (dose: 400.0 mg/kg/injection, schedule: Q01DX005 (ip), vehicle: Klucel (hydroxypropylcellulose) (HPC)) 98 % of control.
For `Oc1ccccc1C=NCc1ccccc1`, the T/C reads like this: under setting [4], 107 % of control; under setting [5], 119 % of control; under setting [6], 114 % of control; under setting [10], 114 % of control.
Regarding `Cn1c2c(c(=O)c3ccccc31)CCC(C)(C)O2`, the T/C was 100 % of control under setting [7], 91 % of control under setting [8] and 98 % of control under setting [9].
Take `C(=C\c1ccco1)/c1ccnnc1`: the T/C under setting [11] is 97 % of control; the T/C under setting [12] is 109 % of control; the T/C under setting [1] is 108 % of control and 97 % of control.
Regarding `C[CH2][Pb]([CH2]C)([CH2]C)[O]C(=O)c1ccccc1`, the T/C is 113 % of control (dose: 0.75 mg/kg/injection, schedule: Q01DX009 (ip), vehicle: Klucel (hydroxypropylcellulose) (HPC)); 115 % of control (dose: 1.5 mg/kg/injection, schedule: Q01DX009 (ip), vehicle: Klucel (hydroxypropylcellulose) (HPC)); 123 % of control (dose: 3.0 mg/kg/injection, schedule: Q01DX009 (ip), vehicle: Klucel (hydroxypropylcellulose) (HPC)); 123 % of control (dose: 6.0 mg/kg/injection, schedule: Q01DX009 (ip), vehicle: Klucel (hydroxypropylcellulose) (HPC)); 97 % of control (dose: 12.0 mg/kg/injection, schedule: Q01DX009 (ip), vehicle: Klucel (hydroxypropylcellulose) (HPC)).
Consider `CC(C)NC(=O)N1C2C3CCC(C)(OC3(C)C)C21` (stereo not drawn), for which the T/C under setting [13] is 108 % of control, the T/C under setting [14] was 101 % of control and the T/C under setting [15] is 101 % of control.
As for `CC(=O)OCC1(C)NC(=O)c2ccccc2O1` (stereo not drawn), the T/C reads like this: under setting [5], 109 % of control (2×) and 120 % of control; under setting [6], 114 % of control and 118 % of control; under setting [10], 100 % of control.
In the case of `CC1CN=C(c2cccc(NC(=O)NCCCCNC(=O)Nc3cccc(C4=NCC(C)N4)c3)c2)N1` (stereo not drawn), the T/C under setting [16] is 100 % of control and the T/C under setting [17] is 104 % of control.
As for `CC(C)C(NC(=O)C(Cc1ccc(O)cc1)NC(=O)OCc1ccccc1)C(=O)O` (stereo not drawn) (Cbz-Tyr-Val-OH; configuration not given here), the T/C reads like this: under setting [7], 103 % of control; under setting [8], 100 % of control; under setting [9], 100 % of control.
For the compound `C[O+]=c1cccc2sc(-c3ccccc3)ccc1-2`, the T/C is 99 % of control under setting [7] and 108 % of control under setting [8].
For `COc1ccc([N+](=O)[O-])c2ccc(C(=O)O)nc12`, the T/C reads like this: under setting [13], 103 % of control; under setting [14], 97 % of control; under setting [15], 110 % of control.
For `CC(C)=CC[P+](CC[P+](CC=C(C)C)(c1ccccc1)c1ccccc1)(c1ccccc1)c1ccccc1`, the T/C reads like this: under setting [16], 98 % of control; under setting [17], 98 % of control.
With `CS(=O)(=O)NC(=O)CCC(=O)Nc1ccc(Cl)cc1`, the T/C is 100 % of control (dose: 100.0 mg/kg/injection, schedule: Q01DX001 (ip), vehicle: saline with Tween-80); 97 % of control (dose: 200.0 mg/kg/injection, schedule: Q01DX001 (ip), vehicle: saline with Tween-80); 96 % of control (dose: 400.0 mg/kg/injection, schedule: Q01DX001 (ip), vehicle: saline with Tween-80).
On to `C(NC=C1c2ccccc2-c2ccccc21)=C1c2ccccc2-c2ccccc21`, for which the T/C was 100 % of control under setting [7], 92 % of control under setting [8] and 94 % of control under setting [9].
In the case of `COC1C(C)(C)C1(Br)Br` (stereo not drawn), the T/C reads like this: under setting [18], 100 % of control; under setting [19], 99 % of control; under setting [20], 98 % of control.
For the compound `Cc1ccc(C(=O)Nc2ccc(S(=O)(=O)O)c3cc(S(=O)(=O)O)cc(S(=O)(=O)O)c23)cc1NC(=O)c1cccc(NC(=O)Nc2cccc(C(=O)Nc3cc(C(=O)Nc4ccc(S(=O)(=O)O)c5cc(S(=O)(=O)O)cc(S(=O)(=O)O)c45)ccc3C)c2)c1`, the T/C was 106 % of control (dose: 25.0 mg/kg/injection, schedule: Q01DX005 (ip), vehicle: saline) and 95 % of control under setting [13].
Consider `Cc1cccc(C)c1NC(=O)C1CN(c2c(C)cccc2C)C(=O)/C1=N\O` (stereo not drawn), for which the T/C runs as follows: under setting [18], 111 % of control; under setting [19], 108 % of control; under setting [20], 103 % of control.
`Clc1ccc2[nH]c3c(c2c1)CCCC3`: the T/C (dose: 200.0 mg/kg/injection, schedule: Q04DX003 (ip), vehicle: saline with Tween-80) was 94 % of control.
With `Cn1c(=O)c2snnc2n(C)c1=O`, the T/C (dose: 100.0 mg/kg/injection, schedule: Q04DX003 (ip), vehicle: Klucel (hydroxypropylcellulose) (HPC)) is 107 % of control and the T/C (dose: 200.0 mg/kg/injection, schedule: Q04DX003 (ip), vehicle: Klucel (hydroxypropylcellulose) (HPC)) is 104 % of control.
As for `CCCC(=O)NC1=C(N2CC2)C(=O)C(NC(=O)CCC)=C(N2CC2)C1=O`, the T/C was 120 % of control (dose: 0.13 mg/kg/injection, schedule: Q01DX009 (ip), vehicle: saline with Tween-80); 118 % of control (dose: 0.2 mg/kg/injection, schedule: Q01DX009 (ip), vehicle: saline with Tween-80); 112 % of control (dose: 0.44 mg/kg/injection, schedule: Q01DX009 (ip), vehicle: saline with Tween-80); 157 % of control (dose: 1.0 mg/kg/injection, schedule: Q01DX009 (ip), vehicle: saline with Tween-80); 181 % of control (dose: 1.56 mg/kg/injection, schedule: Q01DX009 (ip), vehicle: saline with Tween-80); 159 % of control (dose: 2.5 mg/kg/injection, schedule: Q04DX003 (ip), vehicle: saline with Tween-80). Also, the T/C (dose: 3.13 mg/kg/injection, schedule: Q04DX003 (ip), vehicle: saline with Tween-80) was 154 % of control; the T/C (dose: 5.0 mg/kg/injection, schedule: Q04DX003 (ip), vehicle: saline with Tween-80) is 200 % of control; the T/C (dose: 6.25 mg/kg/injection, schedule: Q01DX009 (ip), vehicle: saline with Tween-80) was 86 % of control; the T/C (dose: 6.25 mg/kg/injection, schedule: Q04DX003 (ip), vehicle: saline with Tween-80) was 227 % of control; the T/C (dose: 12.5 mg/kg/injection, schedule: Q04DX003 (ip), vehicle: saline with Tween-80) was 104 % of control.
On to `CCOC(=O)c1ccc(=O)n2c1[nH]c1ccccc12`, for which the T/C under setting [17] was 105 % of control; the T/C (dose: 25.0 mg/kg/injection, schedule: Q01DX005 (ip), vehicle: saline with Tween-80) is 108 % of control; the T/C under setting [18] is 100 % of control and 108 % of control.
Take `CCOC(=O)C(=O)Nc1ccc2cc(OC)ccc2c1C#N`: the T/C (dose: 6.25 mg/kg/injection, schedule: Q01DX009 (ip), vehicle: saline) was 94 % of control; the T/C under setting [11] is 94 % of control; the T/C under setting [12] is 91 % of control; the T/C under setting [1] was 99 % of control; the T/C under setting [2] is 106 % of control; the T/C under setting [3] was 106 % of control.
Turning to `CCOC(=O)CCN(C(C)=O)C(CC(C)C)C(=O)OCC` (stereo not drawn), the T/C was 98 % of control under setting [18], 105 % of control under setting [19] and 105 % of control under setting [20].
